Experimental data: the NIST ThermoML archive (doi:10.1016/j.tca.2011.01.001)

What was measured:
[1] = Molar enthalpy of transition or fusion; settings: Crystal; DSC

O=C(O)c1ccc(O)cc1O [2,4-dihydroxybenzoic acid]
Settings	Molar enthalpy of transition or fusion [kcal/mol]
[1]	7.41

Settings	vapor or sublimation pressure [kPa]
364.2 K, Crystal, Torsion effusion method	6.2e-05
365.3 K, Crystal, Torsion effusion method	7e-05
366.3 K, Crystal, Torsion effusion method	8e-05
367.1 K, Crystal, Torsion effusion method	8.9e-05
368.3 K, Crystal, Torsion effusion method	0.000101
369.6 K, Crystal, Torsion effusion method	0.000116
370.8 K, Crystal, Torsion effusion method	0.000131
372.5 K, Crystal, Torsion effusion method	0.000155
374.2 K, Crystal, Torsion effusion method	0.000187
375.7 K, Crystal, Torsion effusion method	0.000218
377.1 K, Crystal, Torsion effusion method	0.000255
379 K, Crystal, Torsion effusion method	0.000312
380.3 K, Crystal, Torsion effusion method	0.000353
382.5 K, Crystal, Torsion effusion method	0.000391
383 K, Crystal, Torsion effusion method	0.000423
384.1 K, Crystal, Torsion effusion method	0.000512
385.2 K, Crystal, Torsion effusion method	0.000576
387.3 K, Crystal, Torsion effusion method	0.000655
388.1 K, Crystal, Torsion effusion method	0.000735
389.2 K, Crystal, Torsion effusion method	0.000821
390.1 K, Crystal, Torsion effusion method	0.000912
511.2 K, Liquid, Non-isothermal TG	2.825
511.7 K, Liquid, Non-isothermal TG	2.896
512.2 K, Liquid, Non-isothermal TG	3.022
512.7 K, Liquid, Non-isothermal TG	3.073
513.3 K, Liquid, Isothermal TG	3.108
513.8 K, Liquid, Isothermal TG	3.111
514.3 K, Liquid, Isothermal TG	3.167
514.8 K, Liquid, Non-isothermal TG	3.343
515.3 K, Liquid, Non-isothermal TG	3.35
515.8 K, Liquid, Non-isothermal TG	3.458
516.4 K, Liquid, Non-isothermal TG	3.553
516.9 K, Liquid, Isothermal TG	3.606
517.4 K, Liquid, Isothermal TG	3.622
517.9 K, Liquid, Isothermal TG	3.638
518.4 K, Liquid, Isothermal TG	3.711
518.9 K, Liquid, Non-isothermal TG	3.901
519.4 K, Liquid, Non-isothermal TG	3.97
519.9 K, Liquid, Non-isothermal TG	4.016
520.4 K, Liquid, Non-isothermal TG	4.161
520.9 K, Liquid, Isothermal TG	4.222
521.4 K, Liquid, Isothermal TG	4.207
521.9 K, Liquid, Isothermal TG	4.223
522.4 K, Liquid, Isothermal TG	4.342
522.9 K, Liquid, Non-isothermal TG	4.463
523.4 K, Liquid, Non-isothermal TG	4.543
523.9 K, Liquid, Non-isothermal TG	4.649
524.4 K, Liquid, Non-isothermal TG	4.833
525.4 K, Liquid, Isothermal TG	4.975
526.4 K, Liquid, Isothermal TG	5.059
526.9 K, Liquid, Isothermal TG	5.093
527.4 K, Liquid, Isothermal TG	5.122
528.4 K, Liquid, Non-isothermal TG	5.41
528.9 K, Liquid, Non-isothermal TG	5.477
529.4 K, Liquid, Non-isothermal TG	5.483
529.9 K, Liquid, Non-isothermal TG	5.556
530.4 K, Liquid, Isothermal TG	5.598
530.9 K, Liquid, Isothermal TG	5.667
531.5 K, Liquid, Isothermal TG	5.675
532 K, Liquid, Isothermal TG	5.825
532.5 K, Liquid, Non-isothermal TG	5.928
533 K, Liquid, Non-isothermal TG	6.061
533.5 K, Liquid, Isothermal TG	6.226
534 K, Liquid, Isothermal TG	6.322

Settings	Normal melting temperature [°C]
Crystal, DTA	228.6
